Experimental data from ChEMBL document CHEMBL5465560, “Selectivity Literature for EUbOPEN Chemogenomic Library” (2024).

What was measured:
[1] = molecular target: Melanocortin receptor 4 (Homo sapiens) (UniProt P32245); experiment: Selectivity interaction (Eurofins CEREP Diversity Profile (receptors and ion channels)) EUB0000279b MC4R; conditions: at 10 µM
[2] = molecular target: Cyclin-dependent kinase 5 (Homo sapiens, UniProt Q00535); experiment: Selectivity interaction (ActivX KiNativ screen (kinase selectivity in THP-1 cell lysates)) EUB0000639a CDK5; format: subcellular; conditions: lysate, at 0.04 µM
Chain of Cyclin-dependent kinase 5 (Q00535 whole entry, looked up): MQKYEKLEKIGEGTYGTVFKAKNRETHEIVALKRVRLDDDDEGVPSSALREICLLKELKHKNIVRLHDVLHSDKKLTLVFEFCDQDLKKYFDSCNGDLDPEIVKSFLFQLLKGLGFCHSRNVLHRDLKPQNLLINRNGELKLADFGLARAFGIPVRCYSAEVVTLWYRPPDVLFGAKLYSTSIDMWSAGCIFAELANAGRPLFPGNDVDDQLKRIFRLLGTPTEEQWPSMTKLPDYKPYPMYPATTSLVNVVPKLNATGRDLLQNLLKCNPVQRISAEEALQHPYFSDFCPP

[3] = molecular target: T1, Serine/threonine-protein kinase TNNI3K (Homo sapiens) (UniProt Q59H18); experiment: Selectivity interaction (KinomeScan (DiscoverX)) EUB0000595a TNNI3K; conditions: at 10 µM
T1 sequence (whole entry): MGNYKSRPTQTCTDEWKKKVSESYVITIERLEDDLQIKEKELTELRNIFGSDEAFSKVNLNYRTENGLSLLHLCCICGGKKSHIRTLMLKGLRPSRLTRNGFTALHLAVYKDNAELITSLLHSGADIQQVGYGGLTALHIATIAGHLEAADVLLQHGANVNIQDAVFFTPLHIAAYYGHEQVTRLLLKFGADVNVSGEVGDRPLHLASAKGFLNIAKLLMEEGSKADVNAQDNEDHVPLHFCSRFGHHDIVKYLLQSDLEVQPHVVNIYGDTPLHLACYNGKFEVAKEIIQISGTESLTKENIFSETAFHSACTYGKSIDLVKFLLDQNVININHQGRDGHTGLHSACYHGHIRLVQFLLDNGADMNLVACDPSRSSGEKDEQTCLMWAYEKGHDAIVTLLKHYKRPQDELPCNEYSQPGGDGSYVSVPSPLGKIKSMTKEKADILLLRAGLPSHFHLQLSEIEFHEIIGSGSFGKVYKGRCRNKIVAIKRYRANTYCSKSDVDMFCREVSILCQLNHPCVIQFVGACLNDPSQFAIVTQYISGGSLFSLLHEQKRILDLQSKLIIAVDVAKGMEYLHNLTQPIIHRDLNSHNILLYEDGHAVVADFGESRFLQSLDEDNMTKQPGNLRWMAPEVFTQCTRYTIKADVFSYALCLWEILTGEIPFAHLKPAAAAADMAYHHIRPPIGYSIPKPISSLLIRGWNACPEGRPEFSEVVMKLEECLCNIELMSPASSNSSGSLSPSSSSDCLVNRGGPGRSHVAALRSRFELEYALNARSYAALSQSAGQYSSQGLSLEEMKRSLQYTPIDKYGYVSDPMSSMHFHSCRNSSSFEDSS

[4] = molecular target: Tyrosine-protein kinase Fes/Fps (Homo sapiens) (UniProt P07332); experiment: Selectivity interaction (KinomeScan (DiscoverX)) EUB0000695a FES; conditions: at 100 nM
Chain of Tyrosine-protein kinase Fes/Fps (Homo sapiens) (P07332 whole entry): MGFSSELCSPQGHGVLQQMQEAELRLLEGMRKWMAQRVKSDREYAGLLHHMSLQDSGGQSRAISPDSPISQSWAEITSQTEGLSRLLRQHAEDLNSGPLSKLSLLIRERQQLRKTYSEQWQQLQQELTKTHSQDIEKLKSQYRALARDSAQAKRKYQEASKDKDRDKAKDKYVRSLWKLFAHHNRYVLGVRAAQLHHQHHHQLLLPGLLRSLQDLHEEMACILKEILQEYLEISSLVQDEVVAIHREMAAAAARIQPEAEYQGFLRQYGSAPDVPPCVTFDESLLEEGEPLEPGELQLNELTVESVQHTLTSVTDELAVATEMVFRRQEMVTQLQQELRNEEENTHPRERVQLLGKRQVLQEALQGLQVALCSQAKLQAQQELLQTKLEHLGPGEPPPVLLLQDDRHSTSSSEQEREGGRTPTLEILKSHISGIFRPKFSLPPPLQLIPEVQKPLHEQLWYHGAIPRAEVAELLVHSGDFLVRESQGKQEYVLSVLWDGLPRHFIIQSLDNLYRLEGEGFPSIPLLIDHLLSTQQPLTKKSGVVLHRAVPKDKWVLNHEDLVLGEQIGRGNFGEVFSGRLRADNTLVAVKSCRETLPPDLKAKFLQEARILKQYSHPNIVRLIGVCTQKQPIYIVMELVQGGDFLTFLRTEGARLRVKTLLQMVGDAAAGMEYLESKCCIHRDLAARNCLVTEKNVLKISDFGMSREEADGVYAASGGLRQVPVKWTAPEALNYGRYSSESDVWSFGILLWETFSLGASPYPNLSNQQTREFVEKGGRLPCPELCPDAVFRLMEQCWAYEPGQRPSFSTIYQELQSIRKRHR

[5] = molecular target: T2, Serine/threonine-protein kinase ULK2 (Homo sapiens) (UniProt Q8IYT8); experiment: Selectivity interaction (KinomeScan (DiscoverX)) EUB0000695a ULK2; conditions: at 100 nM
T2 sequence (whole entry): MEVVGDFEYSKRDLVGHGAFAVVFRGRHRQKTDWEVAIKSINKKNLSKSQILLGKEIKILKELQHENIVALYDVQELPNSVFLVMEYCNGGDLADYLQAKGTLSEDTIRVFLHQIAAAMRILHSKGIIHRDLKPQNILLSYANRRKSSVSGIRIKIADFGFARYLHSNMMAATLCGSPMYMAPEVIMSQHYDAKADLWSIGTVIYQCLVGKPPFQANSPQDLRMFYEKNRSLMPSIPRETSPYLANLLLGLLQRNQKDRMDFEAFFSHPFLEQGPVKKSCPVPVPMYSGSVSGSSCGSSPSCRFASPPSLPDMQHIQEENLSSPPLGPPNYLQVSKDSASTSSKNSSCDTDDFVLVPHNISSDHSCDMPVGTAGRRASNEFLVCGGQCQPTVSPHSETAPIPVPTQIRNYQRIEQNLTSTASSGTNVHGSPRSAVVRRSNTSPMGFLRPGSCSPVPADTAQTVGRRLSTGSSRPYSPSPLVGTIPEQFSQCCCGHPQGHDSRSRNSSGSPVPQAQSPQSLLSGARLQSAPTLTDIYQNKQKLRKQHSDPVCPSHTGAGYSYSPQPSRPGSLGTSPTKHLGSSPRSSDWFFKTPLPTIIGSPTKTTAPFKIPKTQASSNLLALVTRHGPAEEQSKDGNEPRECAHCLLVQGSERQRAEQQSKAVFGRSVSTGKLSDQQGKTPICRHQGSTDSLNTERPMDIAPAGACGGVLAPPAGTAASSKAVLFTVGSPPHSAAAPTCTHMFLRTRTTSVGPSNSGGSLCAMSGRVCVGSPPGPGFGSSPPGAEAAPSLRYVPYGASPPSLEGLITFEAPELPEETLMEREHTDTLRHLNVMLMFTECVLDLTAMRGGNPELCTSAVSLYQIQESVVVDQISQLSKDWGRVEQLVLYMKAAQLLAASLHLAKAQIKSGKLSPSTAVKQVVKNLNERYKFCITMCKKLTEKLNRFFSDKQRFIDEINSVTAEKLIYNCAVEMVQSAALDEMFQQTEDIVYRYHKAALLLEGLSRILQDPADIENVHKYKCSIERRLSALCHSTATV

Chain of Melanocortin receptor 4 (Homo sapiens) (P32245 whole entry): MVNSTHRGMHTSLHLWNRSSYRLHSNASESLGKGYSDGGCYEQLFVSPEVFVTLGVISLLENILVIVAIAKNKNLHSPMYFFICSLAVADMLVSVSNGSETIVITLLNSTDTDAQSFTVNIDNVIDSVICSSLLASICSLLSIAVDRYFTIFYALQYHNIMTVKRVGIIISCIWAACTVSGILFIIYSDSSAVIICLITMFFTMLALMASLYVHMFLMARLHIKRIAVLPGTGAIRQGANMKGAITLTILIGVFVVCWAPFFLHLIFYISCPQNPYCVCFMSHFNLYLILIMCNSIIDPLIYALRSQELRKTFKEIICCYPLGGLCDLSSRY

CC(=O)c1cc(-c2ccccc2OCC2CC2)c2ncccn12
% of control [1]: 90%

CC[C@@H]1[C@H](F)C(=O)N[C@@H]1COc1nccc2cc(C(N)=O)c(OC)cc12 [ZIMLOVISERTIB]
% of inhibition [2]: 8.4%

COCC(=O)NC/C=C/c1ccc2ncnc(Nc3ccc(Oc4ccc(C)nc4)c(C)c3)c2c1 [CP-724714]
% of control [3]: 100%

Cc1cc(F)c(C(=O)Nc2cccc(-c3nncn3C(C)C)n2)cc1-n1cnc(C2CC2)c1
% of control [4]: 100%
% of control [5]: 91%
